According to patent US9493441B2, “Acyclic cyanoethylpyrazoles as janus kinase inhibitors” (Merck Sharp & Dohme Corp., priority 2011, dated 2016):
Like-named read-outs stand apart in the source and are kept apart here.

Assays:
JAK2 = JAK2 (Homo sapiens (Human), UniProt O60674); experiment: Jak biochemical HTRF assay, JAK2
JAK1 = JAK1 (Homo sapiens (Human), UniProt P23458); experiment: Jak biochemical HTRF assay, JAK1
[1] = JAK2 IC50 (nM), recombinant GST-tagged catalytic domain, [ATP] […]
[2] = JAK1 IC50 (nM), recombinant GST-tagged catalytic domain, [ATP] 31.8 μM
[3] = read-out: JAK2 IC50, recombinant GST-tagged catalytic domain, [ATP] […]
[4] = read-out: JAK1 IC50, recombinant GST-tagged catalytic domain, [ATP] 31.8 μM

Chain of JAK2 (O60674 849-1124): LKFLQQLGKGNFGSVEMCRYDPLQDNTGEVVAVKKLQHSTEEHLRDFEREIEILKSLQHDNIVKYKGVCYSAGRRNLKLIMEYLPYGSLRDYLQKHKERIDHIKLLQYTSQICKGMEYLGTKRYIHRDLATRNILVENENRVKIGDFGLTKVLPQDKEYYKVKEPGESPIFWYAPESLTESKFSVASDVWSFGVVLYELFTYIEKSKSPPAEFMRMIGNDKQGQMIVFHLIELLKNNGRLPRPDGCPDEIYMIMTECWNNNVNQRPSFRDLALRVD
Chain of JAK1 (P23458 875-1153): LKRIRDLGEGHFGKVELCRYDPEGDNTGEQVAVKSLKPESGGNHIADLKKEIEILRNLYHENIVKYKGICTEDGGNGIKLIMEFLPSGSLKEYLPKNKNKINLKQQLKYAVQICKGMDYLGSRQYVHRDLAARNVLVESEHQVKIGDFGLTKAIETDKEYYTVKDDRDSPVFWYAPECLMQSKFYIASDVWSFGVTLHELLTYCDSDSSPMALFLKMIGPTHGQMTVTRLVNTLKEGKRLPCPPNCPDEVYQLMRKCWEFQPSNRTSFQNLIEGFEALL

Row | SMILES | IC50 (JAK2; [1]) [nM] | IC50 (JAK1; [2]) [nM] | IC50 (JAK2; [3]) [nM] | IC50 (JAK1; [4]) [nM]
1 | Cc1nc(-c2ccc(Nc3nn(C(CC#N)C4CC4)cc3C(N)=O)cc2)no1 (stereo not shown) [Example 4-26, 1-(2-cyano-1-cyclopropylethyl)-3-{[4-(5-methyl-1,2,4-oxadiazol-3-yl)phenyl]amino}-1H-pyrazole-4-carboxamide] | 277 | 65 |  | 
2 | N#CCC(C1CC1)n1cc(C(N)=O)c(Nc2ccc3c(c2)CN(CC(=O)O)C3=O)n1 (stereo not shown) [Example 8, (5-{[4-Carbamoyl-1-(2-cyano-1-cyclopropylethyl)-1H-pyrazol-3-yl]amino}-1-oxo-1,3-dihydro-2H-isoindol-2-yl)acetic acid] | 34 | 1 |  | 
3 | Cc1noc(-c2ccc(Nc3nn([C@@H](CC#N)C4CC4)cc3C(N)=O)cc2)n1 (single isomer, unassigned) [Example 18-2, 1-[(1R or 1S)-2-cyano-1-cyclopropylethyl]-3-{[4-(3-methyl-1,2,4-oxadiazol-5-yl)phenyl]amino}-1H-pyrazole-4-carboxamide] |  |  | 257 | 34
4 | CC(C)(O)COCc1cccc(Nc2nn(C(CC#N)C3CC3)cc2C(N)=O)c1 (stereo not shown) [Example 6-1, 1-(2-Cyano-1-cyclopropylethyl)-3-({3-[(2-hydroxy-2-methylpropoxy)methyl]phenyl}amino)-1H-pyrazole-4-carboxamide] | 115 | 47 |  | 
5 | CC(CC#N)n1cc(C(N)=O)c(Nc2ccc(S(C)(=O)=O)cc2)n1 (stereo not shown) [Example 10, 1-(2-Cyano-1-methylethyl)-3-{[4-(methylsulfonyl)phenyl]amino}-1H-pyrazole-4-carboxamide] | 45 | 7 |  | 
6 | C[S+]([O-])c1ccc(Nc2nn(C(CC#N)C3CC3)cc2C(N)=O)cc1 (stereo not shown) [Example 4-32, 1-(2-cyano-1-cyclopropylethyl)-3-{[4-(methylsulfinyl)phenyl]amino}-1H-pyrazole-4-carboxamide] | 13 | 1 |  | 
7 | N#CCC(C1CC1)n1cc(C(N)=O)c(Nc2ccc(F)cc2)n1 (stereo not drawn) [Example 4-11, l-(2-cyano-1-cyclopropylethyl)-3-[(4-fluorophenyl)amino]-1H-pyrazole-4-carboxamide] | 66 | 9 |  | 
8 | N#CCC(C1CC1)n1cc(C(N)=O)c(Nc2ccccc2F)n1 (stereo not shown) [Example 6-2, 1-(2-cyano-1-cyclopropylethyl)-3-[(2-fluorophenyl)amino]-1H-pyrazole-4-carboxamide] |  |  | 1480 | 360
9 | N#CC[C@@H](C1CCN(C(=O)OC2COC2)CC1)n1cc(C(N)=O)c(Nc2ccc(F)cc2)n1 [Example 11-4, oxetan-3-yl 4-[(1S)-1-{4-carbamoyl-3-[(4-fluorophenyl)amino]-1H-pyrazol-1-yl}-2-cyanoethyl]piperidine-1-carboxylate] | 861 | 52 |  | 
10 | N#CCC(C1CC1)n1cc(C(N)=O)c(Nc2cccc(CO)c2)n1 (stereo not shown) [Example 4-10, 1-(2-cyano-1-cyclopropylethyl)-3-{[3-(hydroxymethyl)phenyl]amino}-1H-pyrazole-4-carboxamide] | 41 | 12 |  | 
11 | CC(C)C(CC#N)n1cc(C(N)=O)c(Nc2ccccc2)n1 (stereo not shown) [Example 1-11, 1-[1-(cyanomethyl)-2-methylpropyl]-3-(phenylamino)-1H-pyrazole-4-carboxamide] | 641 | 64 |  | 
12 | N#CCC(C1CC1)n1cc(C(N)=O)c(Nc2cccnc2)n1 (stereo not shown) [Example 4-6, 1-(2-cyano-1-cyclopropylethyl)-3 - (pyridin-3-ylamino)-1H-pyrazole-4-carboxamide] | 76 | 33 |  | 
13 | N#CC[C@@H](C1CCN(C(=O)OC2CCCC2)CC1)n1cc(C(N)=O)c(Nc2ccc(F)cc2)n1 [Example 11-6, cyclopentyl 4-[(1S)-1-{4-carbamoyl-3-[(4-fluorophenyl)amino]-1H-pyrazol-1-yl}-2-cyanoethyl]piperidine-1-carboxylate] | 1200 | 69 |  | 
14 | COc1cc(Nc2nn(C(CC#N)C3CC3)cc2C(N)=O)ccn1 (stereo not shown) [Example 4-12, 1-(2-cyano-1-cyclopropylethyl)-3-[(2-methoxypyridin-4-yl)amino]-1H-pyrazole-4-carboxamide] | 66 | 7 |  | 
15 | N#CC[C@@H](C1CC1)n1cc(C(N)=O)c(Nc2ccnc(F)c2)n1 (single isomer, unassigned) [Example 17-5, 1-[(1R or 1S)-2-cyano-1-cyclopropylethyl]-3-[(2-fluoropyridin-4-yl)amino]-1H-pyrazole-4-carboxamide] | 190 | 16 |  | 
16 | N#CCC(C1CC1)n1cc(C(N)=O)c(Nc2ccnc(Cl)c2)n1 (stereo not shown) [Example 4-27, 3-[(2-chloropyridin-4-yl)amino]-1-(2-cyano-1-cyclopropylethyl)-1H-pyrazole-4-carboxamide] | 290 | 166 |  | 

Row | SMILES | IC50 (JAK2; [1]) [nM] | IC50 (JAK1; [2]) [nM] | IC50 (JAK2; [3]) [nM] | IC50 (JAK1; [4]) [nM]
17 | CC(C)(C)OC(=O)N1CCC(C(CC#N)n2cc(C(N)=O)c(Nc3ccccc3)n2)CC1 (single isomer, unassigned) [Example 15-1, tert-Butyl 4-{(1S or 1R)-1-[4-carbamoyl-3-(phenylamino)-1H-pyrazol-1-yl]-2-cyanoethyl}piperidine-1-carboxylate] |  |  | 601 | 13
18 | N#CC[C@@H](C1CCN(C(=O)OC2CCC2)CC1)n1cc(C(N)=O)c(Nc2ccc(F)cc2)n1 [Example 11-5, cyclobutyl 4-[(1S)-1-{4-carbamoyl-3-[(4-fluorophenyl)amino]-1H-pyrazol-1-yl}-2-cyanoethyl]piperidine-1-carboxylate] | 1170 | 33 |  | 
19 | N#CCC(C1CCCC1)n1cc(C(N)=O)c(Nc2ccc(C(=O)N3CCS(=O)(=O)CC3)cc2)n1 (stereo not shown) [Example 1-5, 1-(2-cyano-1-cyclopentylethyl)-3-({4-[(1,1-dioxidothiomorpholin-4-yl)carbonyl]phenyl}amino)-1H-pyrazole-4-carboxamide] | 31 | 9 |  | 
20 | N#CC[C@H](C1CC1)n1cc(C(N)=O)c(Nc2ccnc(F)c2)n1 (single isomer, unassigned) [Example 17-4, 1-[(1R or 1S)-2-cyano-1-cyclopropylethyl]-3-[(2-fluoropyridin-4-yl)amino]-1H-pyrazole-4-carboxamide] | 16 | 2 |  | 
21 | N#CCC(C1CC1)n1cc(C(N)=O)c(Nc2cccc(C#N)c2)n1 (stereo not shown) [Example 4-16, 1-(2-cyano-1-cyclopropylethyl)-3-[(3-cyanophenyl)amino]-1H-pyrazole-4-carboxamide] | 64 | 19 |  | 
22 | N#CCC(C1CC1)n1cc(C(N)=O)c(Nc2ccc3c(c2)OCCO3)n1 (stereo not shown) [Example 4-20, 1-(2-cyano-1-cyclopropylethyl)-3-(2,3-dihydro-1,4-benzodioxin-6-ylamino)-1H-pyrazole-4-carboxamide] | 87 | 24 |  | 
23 | N#CCC(C1CC1)n1cc(C(N)=O)c(Nc2ccc(N3CCOCC3)cc2)n1 (stereo not shown) [Example 4-17, 1-(2-cyano-1-cyclopropylethyl)-3-[(4-morpholin-4-ylphenyl)amino]-1H-pyrazole-4-carboxamide] | 43 | 13 |  | 
24 | N#CC[C@@H](C1CCN(C(=O)OCC2CCOC2)CC1)n1cc(C(N)=O)c(Nc2ccc(F)cc2)n1 (stereo partly drawn) [Example 11-12, tetrahydrofuran-3-ylmethyl 4-[(1S)-1-{4-carbamoyl-3-[(4-fluorophenyl)amino]-1H-pyrazol-1-yl}-2-cyanoethyl]piperidine-1-carboxylate] | 1500 | 181 |  | 
25 | CN(C)S(=O)(=O)c1ccc(Nc2nn(C(CC#N)C3CC3)cc2C(N)=O)cc1 (stereo not shown) [Example 6-4, 1-(2-cyano-1-cyclopropylethyl)-3-{[4-(dimethylsulfamoyl)phenyl]amino}-1H-pyrazole-4-carboxamide] | 3 | 1 |  | 
26 | N#CC[C@@H](C1CCN(C(=O)OCC(F)(F)F)CC1)n1cc(C(N)=O)c(Nc2ccc(F)cc2)n1 [Example 11-7, 2,2,2-trifluoroethyl 4-[(1S)-1-{4-carbamoyl-3-[(4-fluorophenyl)amino]-1H-pyrazol-1-yl}-2-cyanoethyl]piperidine-1-carboxylate] | 425 | 7 |  | 
27 | CN1C(=O)c2ccc(Nc3nn(C(CC#N)C4CC4)cc3C(N)=O)cc2C1(C)C (stereo not shown) [Example 4-30, 1-(2-cyano-1-cyclopropylethyl)-3-[(2,3,3-trimethyl-1-oxo-2,3-dihydro-1H-isoindol-5-yl)amino]-1H-pyrazole-4-carboxamide] | 226 | 15 |  | 
28 | N#CC[C@@H](C1CCN(C(=O)OC2CCCCC2)CC1)n1cc(C(N)=O)c(Nc2ccc(F)cc2)n1 (single isomer, unassigned) [Example 12-5, cyclohexyl 4-[(1S or 1R)-1-{4-carbamoyl-3-[(4-fluorophenyl)amino]-1H-pyrazol-1-yl}-2-cyanoethyl]piperidine-1-carboxylate] | 1500 | 628 |  | 
29 | N#CCc1ccc(Nc2nn(C(CC#N)C3CC3)cc2C(N)=O)cc1 (stereo not shown) [Example 4-8, 1-(2-cyano-1-cyclopropylethyl)-3-{[4-(cyanomethyl)phenyl]amino}-1H-pyrazole-4-carboxamide] | 24 | 5 |  | 
30 | CCC(CC#N)n1cc(C(N)=O)c(Nc2ccc(C(=O)N3CCS(=O)(=O)CC3)cc2)n1 (stereo not shown) [Example 1-17, 1-[1-{cyanomethyl)propyl]-3-({4-[(1,1-dioxidothiomorpholin-4-yl)carbonyl]phenyl}amino)-1H-pyrazole-4-carboxamide] | 74 | 19 |  | 
31 | CCC(CC#N)n1cc(C(N)=O)c(Nc2ccccc2)n1 (stereo not shown) [Example 1-7, 1-[1-(cyanomethyl)propyl]-3-(phenylamino)-1H-pyrazole-4-carboxamide] | 546 | 48 |  | 
32 | N#CCC(C1CC1)n1cc(C(N)=O)c(Nc2cccc(C(F)(F)F)c2)n1 (stereo not shown) [Example 4-4, 1-(2-cyano-1-cyclopropylethyl)-3-{[3-(trifluoromethyl)phenyl]amino}-1H-pyrazole-4-carboxamide] | 394 | 82 |  | 
